This is an account of results in article PMC7726444 (Frontiers in Pharmacology, 2020).

Type in all cases: biochemical
One assay has as its target T1, WT full-length TPH2 (Homo sapiens, UniProt Q8IWU9).
T1 construct: both the doubly truncated TPH1 protein and WT full-length TPH2 protein; made in house
T1 sequence (Q8IWU9 1-490): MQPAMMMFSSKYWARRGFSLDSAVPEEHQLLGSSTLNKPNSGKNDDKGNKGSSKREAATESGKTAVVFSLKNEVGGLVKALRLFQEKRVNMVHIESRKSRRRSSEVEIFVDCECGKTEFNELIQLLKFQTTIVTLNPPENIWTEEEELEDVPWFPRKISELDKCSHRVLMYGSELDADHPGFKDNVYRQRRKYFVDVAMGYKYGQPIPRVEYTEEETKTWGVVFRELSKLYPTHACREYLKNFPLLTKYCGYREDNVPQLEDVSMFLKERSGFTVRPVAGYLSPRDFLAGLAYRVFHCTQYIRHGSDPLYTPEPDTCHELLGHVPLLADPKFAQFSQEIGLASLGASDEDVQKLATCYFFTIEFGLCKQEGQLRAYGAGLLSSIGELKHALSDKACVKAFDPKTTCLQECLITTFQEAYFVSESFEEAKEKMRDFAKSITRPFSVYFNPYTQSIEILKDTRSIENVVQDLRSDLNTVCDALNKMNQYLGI
Put plainly: Tryptophan hydroxylase enzymatic activity assay, WT full-length TPH2. The note with it: mean (95% confidence interval), three experiments in duplicate.

Another assay concerns the target T2, MAO-A (Homo sapiens, UniProt P21397).
T2 construct: purchased BioVision, Inc, Milpitas, CA
T2 sequence (P21397 1-527): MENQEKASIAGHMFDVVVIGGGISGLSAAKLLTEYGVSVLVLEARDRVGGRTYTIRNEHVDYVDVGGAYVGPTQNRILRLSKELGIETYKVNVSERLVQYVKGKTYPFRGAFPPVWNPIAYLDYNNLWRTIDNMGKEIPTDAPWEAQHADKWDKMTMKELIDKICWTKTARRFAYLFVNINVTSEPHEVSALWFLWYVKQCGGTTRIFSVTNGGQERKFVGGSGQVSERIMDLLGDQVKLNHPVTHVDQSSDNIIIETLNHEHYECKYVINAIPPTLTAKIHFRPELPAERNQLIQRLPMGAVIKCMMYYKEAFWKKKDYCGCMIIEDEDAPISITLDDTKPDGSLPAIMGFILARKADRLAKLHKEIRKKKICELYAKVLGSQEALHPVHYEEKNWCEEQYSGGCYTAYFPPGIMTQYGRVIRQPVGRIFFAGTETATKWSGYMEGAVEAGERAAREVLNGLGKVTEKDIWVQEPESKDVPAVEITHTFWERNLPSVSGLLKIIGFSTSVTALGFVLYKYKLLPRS
Put plainly: MAO-A enzymatic activity assay (MAO-A Inhibitor Screening Kit, fluorimetric detection of H2O2). The note with it: 25°C, 15 min kinetic read; mean (95% confidence interval), three experiments. The procedure: The experiments were conducted following the manufacturer’s (BioVision, Inc, Milpitas, CA) instructions and were based on the fluorimetric detection of H2O2, a byproduct of the enzymatic activity of MAO-A, by measuring the fluorescence (Excitation/Emission at 535/587 nm) kinetically at 25°C for 15 min using a Tecan Spark plate reader (Tecan Group Ltd, Männedorf, Switzerland).
Relative inhibition of MAO-A was calculated as a percentage using the following Eq. 2: %Relative inhibition=((Slope of EC−Slope of S)/Slope of EC)×100 (2)
The slopes for all samples, either containing Enzyme Control (EC) or test substance (S), were calculated by dividing the net change in relative fluorescence units (ΔRFU; RFU2–RFU1) by the time interval (Δt; t2 –t1).

A further assay deals with T3, WT human PAH (Homo sapiens, UniProt P00439).
T3 construct: made in house
T3 sequence (P00439 1-452): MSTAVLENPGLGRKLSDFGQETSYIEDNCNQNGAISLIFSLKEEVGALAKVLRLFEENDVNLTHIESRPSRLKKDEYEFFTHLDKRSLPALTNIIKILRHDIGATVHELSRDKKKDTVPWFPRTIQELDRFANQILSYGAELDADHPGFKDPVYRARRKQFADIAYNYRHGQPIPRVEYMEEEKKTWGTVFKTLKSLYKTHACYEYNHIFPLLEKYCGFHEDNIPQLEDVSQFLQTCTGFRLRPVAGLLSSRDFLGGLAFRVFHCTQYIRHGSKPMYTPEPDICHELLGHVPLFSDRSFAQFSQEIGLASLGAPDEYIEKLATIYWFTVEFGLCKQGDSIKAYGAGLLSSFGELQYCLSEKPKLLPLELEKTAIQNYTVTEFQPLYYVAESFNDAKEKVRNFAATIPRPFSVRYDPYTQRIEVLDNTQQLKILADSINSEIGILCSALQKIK
Nature of the assay: PAH enzymatic activity assay (selectivity). The conditions noted are these: up to a concentration of 100 µM. On the procedure:
(§1) Full-length WT TPH1 and TPH2 were expressed as N-terminal six-His-maltose-binding protein fusion proteins in pETM-41 and were cleaved and purified as described previously ([McKinney et al., 2004]; [Winge et al., 2007]). Human WT PAH and TH were expressed and isolated as described previously ([Flydal et al., 2012]; [Bezem et al., 2016]).
(§2) Purified WT human TPH2, PAH, and TH were used for this purpose, and the activity assays for each enzyme was performed as described previously ([Haavik and Flatmark, 1980]; [Winge et al., 2007]; [Aubi et al., 2015]; [Bezem et al., 2016]).

For a further assay, the target named is T4, WT human TH (Homo sapiens, UniProt P07101).
T4 construct: made in house
T4 sequence (P07101 1-497 isoform P07101-3): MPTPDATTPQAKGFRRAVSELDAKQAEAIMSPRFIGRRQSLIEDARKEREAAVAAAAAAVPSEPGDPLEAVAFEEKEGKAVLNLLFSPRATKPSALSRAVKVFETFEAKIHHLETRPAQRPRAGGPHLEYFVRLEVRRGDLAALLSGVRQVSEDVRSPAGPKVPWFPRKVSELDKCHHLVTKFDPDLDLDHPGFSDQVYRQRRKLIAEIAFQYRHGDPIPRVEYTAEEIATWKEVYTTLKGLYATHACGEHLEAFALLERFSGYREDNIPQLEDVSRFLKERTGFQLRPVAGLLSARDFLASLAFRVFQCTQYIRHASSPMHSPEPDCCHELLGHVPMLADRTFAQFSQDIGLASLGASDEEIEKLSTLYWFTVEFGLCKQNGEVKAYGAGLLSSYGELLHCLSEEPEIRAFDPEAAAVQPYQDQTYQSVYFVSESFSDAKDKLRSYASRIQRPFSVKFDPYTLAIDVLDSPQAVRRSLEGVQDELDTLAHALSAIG
Nature of the assay: TH enzymatic activity assay (selectivity). The note with it: up to a concentration of 100 µM. On the procedure:
as §1, §2

What is called IC50 is the concentration needed to halve the response being measured. Low values mean inhibition by little substance, high ones a need for much substance. `COc1ccc2[nH]c([S+]([O-])Cc3ncc(C)c(OC)c3C)nc2c1` (stereo not shown) [Omeprazole]: the 50% inhibitory concentration (IC50) on WT full-length TPH2 amounted to 4.3 µM; against MAO-A it was 89.4 µM. For the same compound, the “inhibition of PAH” value at WT human PAH was “no inhibition”. Further, the “inhibition of TH” value on WT human TH is “no inhibition”.
